Experimental findings from US20230277669A1, “USES OF UROLITHINS” (Amazentis SA, priority 2022, published 2023) are described below.

The test system of experiment [1] is CD3+ cells. Description: Western blot, fractionation and immunofluorescence of stimulated CD3+ cells. Format: cell-based. The method, then:
(§1) (FIG. 4A) Scheme of CD3+ T-cell activation and analysis for various timepoints in order to investigate mitophagy induction in vitro. (FIG. 4B) Analysis of mitochondrial membrane potential within CD8+ T cells, with TMRM^lo representing cells with low mitochondrial membrane potential. Analysis was performed six hours after stimulation with aCD/aCD28 stimulation beads at the presence of the indicated treatments. N=4 per group, *p < 0.05 by Mann Whitney U test. One of two independent experiments are shown. (FIG. 4C) Representative flow histogram and quantification of lysosome formation in CD8+ cells six hours after in vitro stimulation. MFI shown relative to DMSO controls, n=4. Data are normalised mean ± SD, statistical analysis by two-sided t-test. One out of two independent experiments are shown. (FIG. 4D) Mitotracker Red staining of in vitro stimulated CD8+ cells after 24 hours of Urolithin A (UA25 n=6; UA50 n=6) or vehicle control treatment (DMSO: n=4). A representative flow histogram depicting identification of Mitotracker^hi cells is shown. Data are mean ± SD, statistical analysis was performed by two-sided t-test (*p < 0.05; ***p <0.001; ****p < 0.0001). Experiment was repeated twice. (FIG. 4E) Subset-specific identification of Mitotracker red accumulation after 24 hours of in vitro stimulation either with vehicle control (DMSO) or 50 µM Urolithin A (n=5). Subsets were identified was depicted in the FIGS. 7-9. Data are mean ± SD, statistical analysis by two-sided t-test (* p<0.05, *** p<0.001 and **** p<0.0001). (FIG. 4F) qPCR analysis of various autophagy/mitophagy associated genes of in vitro activated CD3+ cells, 24 h after activation (n=3). Data are ± SEM, statistical analysis was performed by two-sided t-test (*p < 0.05,**p < 0.01). Overall p value is given for the comparison over the entire panel of genes after two-way ANOVA test. (FIG. 4G) Western blot of Parkin protein expression in UA or DMSO (n=3) treated cells after 24 h. Cells were stimulated at the presence of plate-bound aCD3/aCD28 antibodies. […] (FIG. 4H) CD8+ cells from Pink1^-/- mice display deficient mitophagy upon UA treatment in vitro: Lysosome formation in CD8+ of Pink1^-/- mice as assessed by Lysotracker staining 6h post stimulation at the presence of UA or DMSO (n=4). Data are mean ± SD, one out of two independent experiments are shown. (FIG. 4I) CD8+ cells from Pink1^-/- mice display deficient mitophagy upon UA treatment in vitro: Mitotracker red staining of Pink1^-/- CD8+ stimulated in vitro for 48 h, either in the presence of UA or DMSO (n=4). Percentage of Mitotracker^hi CD8+ cells are shown. Data are mean ± SD and acquired via flow cytometry. […] Quantification of TCF1^hi cells among CD8. (FIG. 4N) Quantification of PD1^hi cells among CD8. (FIG. 4O) Quantification of and Tim3^hi cells among CD8. […]
In general terms: In western blotting, separated proteins are transferred to a membrane and probed.

For experiment [2], the system named is APTK tumors. Description: Oral UA in Pink1-/- mice with s.c. APTK tumors. In kind it is in vivo. As to the method: as §1

Turning to `O=c1oc2cc(O)ccc2c2ccc(O)cc12` [Urolithin A], the “phosphorylation of Stat1” value in experiment [1] (6 h, compared to vehicle controls) is recorded as “equal phosphorylation of Stat1”. The “Parkin protein expression (Western blot)” value in experiment [1] (24 h) is recorded as “stabilized Parkin protein expression”. In addition, the b-catenin phosphorylation entry in experiment [1] (after 6 hours) was “marked decrease”. Besides, the “Pgam5 localization (sub-cellular fractionation, immunofluorescence)” value in experiment [1] (six hours) is on record as “rapidly released into the cytoplasma”. In experiment [2] (PMA and Ionomycin restimulation), the “ex vivo cytokine release of CD8+ TIL” value is “did not exhibit differences”. Also, in experiment [2] (UA or control diet), the “TCF-1 expression in CD8+ TIL” value is “did not exhibit differences” and the “exhaustion markers in CD8+ TIL” value was “did not exhibit differences”. In addition, the “tumor suppressive effect of UA (growth curve)” value in experiment [2] (UA-rich or control diet) is “abrogated the tumor suppressive effect of UA”.
